Measured values from paper PMC9951879, “Synthesis of New Shogaol Analogues as NRF2 Activators and Evaluation of Their Anti-Inflammatory Activity, Modes of Action and Metabolic Stability” (Antioxidants, 2023).
Like-named read-outs stand apart in the source and are kept apart here.

Legend:
[1] = Vybrant MTT cytotoxicity assay in Hepa-1c1c7 cells; assay type: cell-based; conditions: mouse, read-out: cell viability
Experimental: (§1) The safe dose of the test compounds on murine hepatoma (Hepa1c1c-7) and mouse microglial cells (BV-2) was assessed by determining their cytotoxicity using Vybrant® MTT Cell Proliferation Assay Kit (Thermo Fisher Scientific, USA) following the manufacturer’s protocol. In the case of BV-2 cells, the cytotoxicity of the test compounds was assessed together with E. coli lipopolysaccharide (LPSEc), 200 ng/mL. The cell density was 5 × 10^5 cells/well (in a 96-well plate), and they were preincubated for 24 h. The test compounds (10, 5, 2.5, 1.25, and 0.625 μM) were then added to each well (in triplicate) and incubated for another 24 h. The solution’s absorbance was measured using Spectramax (Molecular Devices, San Jose, California, USA) M3 microplate reader. The cell viability was calculated using the following formula, and the results are presented as mean ± SD. Percent cell viability %=Atreated cells−Ablank /Auntreated cells−Ablank×100%

GSTP1 = experiment: qPCR gene expression in Hepa1c1c-7 cells: GSTP1; assay type: cell-based, mouse; conditions: 1 μM, 48 h, Hepa-1c1c7 cells
Experimental: (§2) Hepa1c1c-7 cells were treated with STCs (1 μM) for 48 h, and the total RNA was isolated using QIAzol®lysis reagent (Qiagen, Germany). Next, cDNA was synthesised using the ReverTra Ace® qPCR RT Master Mix Kit (Toyobo Research Reagents, Osaka, Japan). Quantitative PCR was performed using THUNDERBIRD^TM Next SYBR® qPCR Mix (Toyobo Research Reagents, Osaka, Japan) in CFX96 Touch Real-Time PCR Detection System (Bio-Rad Laboratories, San Jose, CA, USA). The genes tested and the respective primers (purchased from Integrated DNA Technologies, Coralville, IA, USA) used in the study are shown in Table 1. β-actin was used as a reference gene for the normalisation of target gene expression. The 2^−ΔΔCt method was used to measure the relative expression of target genes.

GPX2 = experiment: qPCR gene expression in Hepa1c1c-7 cells: GPX2; assay type: cell-based, mouse; conditions: 1 μM, 48 h, Hepa-1c1c7 cells
Experimental: as §2

GSTM2 = experiment: qPCR gene expression in Hepa1c1c-7 cells: GSTM2; assay type: cell-based, mouse; conditions: 1 μM, 48 h, Hepa-1c1c7 cells
Experimental: as §2

[2] = Vybrant MTT cytotoxicity assay in BV-2 cells together with LPSEc; assay type: cell-based; conditions: mouse, BV-2 microglial cells, BV-2 cells plus LPSEc 200 ng/mL, read-out: cell viability
Experimental: as §1

TXNRD1 = experiment: qPCR gene expression in Hepa1c1c-7 cells: TXNRD1; assay type: cell-based, mouse; conditions: 1 μM, 48 h, Hepa-1c1c7 cells
Experimental: as §2

HMOX1 = experiment: qPCR gene expression in Hepa1c1c-7 cells: HMOX1; assay type: cell-based, mouse; conditions: 1 μM, 48 h, Hepa-1c1c7 cells
Experimental: as §2

SMILES | viability at 24 h ([1]; Hepa-1c1c7 cells, 5 and 10 μM) [%] | GSTP1 gene expression foldchange (compared to control) (GSTP1) | GPX2 gene expression foldchange (compared to control) (GPX2) | GSTM2 gene expression foldchange (compared to control) (GSTM2) | viability at 24 h, 5 µM ([2]; concentrations ≥ 5 μM) [%] | TXNRD1 gene expression foldchange (compared to control) (TXNRD1) | HMOX1 gene expression foldchange (compared to control) (HMOX1) | viability at 24 h ([1]; Hepa-1c1c7 cells, 2.5, 5 and 10 μM) [%] | viability at 24 h, 2.5 µM ([2]; concentrations ≥ 2.5 μM) [%]
CCCCC/C=C/C(=O)CCc1ccc(O)c(OC)c1 [6-shogaol, reference compound] | < 90 | 2.12 ± 0.09 | 1.63 ± 0.06 | 1.19 ± 0.05 | < 90 | 1.20 ± 0.08 | 1.34 ± 0.05 |  | 
COc1cc(CCC(=O)/C=C/c2cc(-c3ccccc3)cs2)ccc1O [STC5, (E)-5-(4-Hydroxy-3-methoxyphenyl)-1-(4-phenylthiophen-2-yl)pent-1-en-3-one] |  | 3.71 ± 0.09 | 3.25 ± 0.11 | 3.19 ± 0.05 |  | 2.52 ± 0.06 | 3.01 ± 0.10 |  | 
COc1cc(CCC(=O)/C=C/c2ccc([N+](=O)[O-])s2)ccc1O [STC8, (E)-5-(4-Hydroxy-3-methoxyphenyl)-1-(5-nitrothiophen-2-yl)pent-1-en-3-one] |  |  |  |  |  |  |  | < 90 | < 90
